Our source for the IC50 and Inhibitory ratio values is ChEMBL document CHEMBL1145727, “Improvement of biological activity and proteolytic stability of peptides by coupling with a cyclic peptide” (Bioorg Med Chem Lett, 2003).

Bridge positions count the residues as written; N and C are the ends. Peptide text beside a SMILES is read from it.

Experiment [1] concerns the target Protein farnesyltransferase (Homo sapiens, UniProt P49354+P49356). Briefly: Inhibition of Farnesyltransferase by Scintillation Proximity Assay. In kind it is protein-complex assay.
Experiment [2] deals with Protein farnesyltransferase (Bos taurus, UniProt P29702+P49355). Put plainly: In vitro inhibition of farnesylation of v-Ki-Ras by bovine farnesyl transferase. In kind it is protein-complex assay.
Experiment [3] deals with Integrin alpha-5/beta-1 (Homo sapiens, UniProt P05556+P08648). Briefly: Inhibition of mouse melanoma B16-F10 cell adhesion to fibronectin. In kind it is functional, cell-based.
Sequence of Integrin alpha-5/beta-1 (P05556 21-798 limits assumed): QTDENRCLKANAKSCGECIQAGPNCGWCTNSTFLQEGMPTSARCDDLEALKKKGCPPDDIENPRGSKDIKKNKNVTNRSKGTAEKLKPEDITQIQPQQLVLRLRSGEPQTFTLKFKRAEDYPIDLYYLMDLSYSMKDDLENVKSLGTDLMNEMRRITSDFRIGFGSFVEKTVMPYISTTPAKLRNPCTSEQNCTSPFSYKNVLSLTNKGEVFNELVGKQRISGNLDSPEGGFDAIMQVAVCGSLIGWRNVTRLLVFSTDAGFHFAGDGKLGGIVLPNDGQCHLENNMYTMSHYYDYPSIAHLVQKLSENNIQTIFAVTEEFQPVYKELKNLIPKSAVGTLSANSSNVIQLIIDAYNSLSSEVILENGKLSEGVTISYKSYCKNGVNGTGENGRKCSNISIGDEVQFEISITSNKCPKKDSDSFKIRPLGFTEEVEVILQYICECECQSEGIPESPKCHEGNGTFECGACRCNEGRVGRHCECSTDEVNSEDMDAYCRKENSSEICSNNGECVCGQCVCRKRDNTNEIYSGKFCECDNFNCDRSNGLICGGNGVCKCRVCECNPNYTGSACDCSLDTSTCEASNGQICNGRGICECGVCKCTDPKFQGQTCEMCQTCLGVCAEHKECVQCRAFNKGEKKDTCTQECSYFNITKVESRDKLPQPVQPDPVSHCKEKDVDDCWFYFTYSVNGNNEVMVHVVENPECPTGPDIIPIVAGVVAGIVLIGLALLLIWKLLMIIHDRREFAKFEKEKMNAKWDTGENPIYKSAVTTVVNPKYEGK
Sequence of Integrin alpha-5/beta-1 (P08648 42-894 limits assumed): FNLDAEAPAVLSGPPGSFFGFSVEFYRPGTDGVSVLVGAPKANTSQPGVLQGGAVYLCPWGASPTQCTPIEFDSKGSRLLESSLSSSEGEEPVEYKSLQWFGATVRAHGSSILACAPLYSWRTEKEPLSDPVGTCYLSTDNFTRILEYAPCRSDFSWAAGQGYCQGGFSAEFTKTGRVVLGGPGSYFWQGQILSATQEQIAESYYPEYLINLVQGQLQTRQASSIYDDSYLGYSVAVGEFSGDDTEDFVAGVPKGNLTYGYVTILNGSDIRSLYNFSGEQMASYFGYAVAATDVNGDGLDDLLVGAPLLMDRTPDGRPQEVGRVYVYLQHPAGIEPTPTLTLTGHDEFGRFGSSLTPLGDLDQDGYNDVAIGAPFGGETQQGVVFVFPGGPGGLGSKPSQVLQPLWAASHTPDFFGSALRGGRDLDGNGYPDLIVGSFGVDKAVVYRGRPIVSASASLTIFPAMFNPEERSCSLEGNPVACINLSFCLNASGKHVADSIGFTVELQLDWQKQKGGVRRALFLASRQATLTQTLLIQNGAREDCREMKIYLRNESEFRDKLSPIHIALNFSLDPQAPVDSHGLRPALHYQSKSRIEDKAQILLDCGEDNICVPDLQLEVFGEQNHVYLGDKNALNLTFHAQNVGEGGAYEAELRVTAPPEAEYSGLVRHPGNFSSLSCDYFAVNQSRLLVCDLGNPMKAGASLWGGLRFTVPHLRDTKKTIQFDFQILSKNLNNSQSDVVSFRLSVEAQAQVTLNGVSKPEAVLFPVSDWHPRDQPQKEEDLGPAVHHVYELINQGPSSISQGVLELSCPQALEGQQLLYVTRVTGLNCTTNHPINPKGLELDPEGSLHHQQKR
Sequence of Integrin alpha-5/beta-1 (P08648 895-1049 limits assumed): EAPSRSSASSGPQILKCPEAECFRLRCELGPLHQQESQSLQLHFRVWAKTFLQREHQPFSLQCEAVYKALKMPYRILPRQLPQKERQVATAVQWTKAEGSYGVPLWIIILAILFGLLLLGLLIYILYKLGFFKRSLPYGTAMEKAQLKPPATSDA
In experiment [4] the target is T1, Integrin alpha-IIb/beta-3 (Homo sapiens) (UniProt P05106+P08514). Briefly: Inhibition of platelet aggregation at 1 mM in platelet-rich plasma (PRP) of citreated rabbit heart blood. In kind it is functional. The settings on record: Oryctolagus cuniculus, target entry is the homologue from another species.
The target of experiment [5] is T1, Integrin alpha-IIb/beta-3 (Homo sapiens). Briefly: Inhibition of platelet aggregation at 0.3 mM in platelet-rich plasma (PRP) of citreated rabbit heart blood. It is filed as functional. As to conditions: Oryctolagus cuniculus, target entry is the homologue from another species.
For experiment [6] the target is unchanged. Put plainly: Inhibition of platelet aggregation at 0.1 mM in platelet-rich plasma (PRP) of citreated rabbit heart blood. It is filed as functional. The settings on record: Oryctolagus cuniculus, target entry is the homologue from another species.

Usually IC50 stands for the concentration that inhibits the measured activity by half. Higher therefore signals weaker potency. `CSCC[C@H](NC(=O)[C@@H](NC(=O)[C@@H](NC(=O)[C@H](CS)NC(=O)[C@H]1CCCN1C(=O)[C@H](CC(C)C)NC(=O)CNC(=O)[C@H](CCSC)NC(=O)[C@H](CO)N[C@H]1CC(=O)NCC(=O)N[C@H](CC(N)=O)C(=O)N[C@@H](Cc2c[nH]c3ccccc23)C(=O)N[C@H](Cc2c[nH]cn2)C(=O)NCC(=O)N[C@H]([C@@H](C)O)C(=O)N[C@@H](C)C(=O)N2CCC[C@@H]2C(=O)N1)C(C)C)C(C)C)C(=O)O`: the IC50 in experiment [1] was determined as 0.42 µM; in experiment [2] it was 560 µM. The compound `CC(C)[C@H](NC(=O)[C@H](C)NC(=O)[C@H](Cc1ccc(O)cc1)NC(=O)[C@@H](NC(=O)[C@@H]1CC(=O)NCC(=O)N[C@@H](CC(N)=O)C(=O)N[C@@H](Cc2c[nH]c3ccccc23)C(=O)N[C@@H](Cc2cnc[nH]2)C(=O)NCC(=O)N[C@@H]([C@@H](C)O)C(=O)N[C@@H](C)C(=O)N2CCC[C@H]2C(=O)N1)C(C)C)C(=O)N[C@H](C(=O)NCC(=O)N[C@@H](CCCNC(=N)N)C(=O)NCC(=O)N[C@@H](CC(=O)O)C(=O)N[C@@H](CO)C(=O)N1CCC[C@H]1C(=O)N[C@@H](C)C(N)=O)[C@@H](C)O` (GNWHGTAPDVYAVTGRGDSPA-NH2; lactam N-9) yielded an IC50 in experiment [3] (b16-f10) of 800 µM. Regarding `CC(C)[C@H](NC(=O)[C@H]1CC(=O)NCC(=O)N[C@H](CC(N)=O)C(=O)N[C@@H](Cc2c[nH]c3ccccc23)C(=O)N[C@H](Cc2c[nH]cn2)C(=O)NCC(=O)N[C@H]([C@@H](C)O)C(=O)N[C@@H](C)C(=O)N2CCC[C@@H]2C(=O)N1)C(=O)N[C@H](C(=O)NCC(=O)N[C@@H](CCCN=C(N)N)C(=O)NCC(=O)N[C@@H](CC(=O)O)C(=O)N[C@@H](CO)C(=O)N1CCC[C@@H]1C(=O)N[C@@H](C)C(=O)O)[C@@H](C)O`, the Inhibitory ratio in experiment [4] stood at 92.1%; in experiment [5] it was 78.4%; in experiment [6], 28.3%. With H-VYAVTGRGDSPA-NH2, in experiment [3], the midpoint of inhibition, the IC50, lay at 1000 µM. Regarding `CSCC[C@H](NC(=O)[C@@H](NC(=O)[C@@H](NC(=O)[C@H](CS)NC(=O)[C@@H]1CCCN1C(=O)[C@H](CC(C)C)NC(=O)CNC(=O)[C@H](CCSC)NC(=O)[C@@H](N)CO)C(C)C)C(C)C)C(=O)O`, the IC50 in experiment [1] turned out to be 1.2 µM.

With H-VTGRGDSPA-OH [listing 1 of 2 here], the Inhibitory ratio was found to be 61.2% in experiment [4] and 20.3% in experiment [5].

On to `CC(C)[C@H](NC(=O)[C@@H]1CC(=O)NCC(=O)N[C@@H](CC(N)=O)C(=O)N[C@@H](Cc2c[nH]c3ccccc23)C(=O)N[C@@H](Cc2cnc[nH]2)C(=O)NCC(=O)N[C@@H]([C@@H](C)O)C(=O)N[C@@H](C)C(=O)N2CCC[C@H]2C(=O)N1)C(=O)N[C@H](C(=O)NCC(=O)N[C@@H](CCCNC(=N)N)C(=O)NCC(=O)N[C@@H](CC(=O)O)C(=O)N[C@@H](CO)C(=O)N1CCC[C@H]1C(=O)N[C@@H](C)C(=O)O)[C@@H](C)O`, for which the concentration for half-maximal inhibition (IC50) in experiment [3] came to 290 µM. Still for that read-out and setting: the figure for H-VTGRGDSPA-OH [listing 2 of 2 here] is 1100 µM.
